Laboratory results: ChEMBL document CHEMBL6109088 (J Med Chem, 2025)

Tests used:
in vitro [1] = conditions: dog, MDCK
in vitro [2] = conditions: human, liver microsomes
physchem = conditions: octanol/water
SARS-CoV-2 = experiment: microbe, parasite or virus in culture; conditions: Severe acute respiratory syndrome coronavirus 2, USA-WA1/2020, Vero C1008
in vivo [3] = conditions: rat, po
in vivo [4] = conditions: male, Wistar Hannover, rat, po, 10 mg/kg
in vivo [5] = conditions: male, Wistar Hannover, rat, plasma, iv, 1 mg/kg
in vivo [6] = conditions: male, Wistar Hannover, rat, iv, 1 mg/kg
in vivo [7] = conditions: male, Wistar Hannover, rat, iv, 1 mg/kg; remark: listed apart in the source
in vivo [8] = conditions: male, Wistar Hannover, rat, po, 10 mg/kg; remark: listed apart in the source
in vivo [9] = conditions: male, Wistar Hannover, rat, po, 10 mg/kg; remark: listed apart in the source
in vivo [10] = conditions: male, Wistar Hannover, rat, po, 10 mg/kg; remark: listed apart in the source
in vivo [11] = conditions: male, Wistar Hannover, rat, po, 10 mg/kg; remark: listed apart in the source
in vivo [12] = conditions: male, Wistar Hannover, rat, po, 100 mg/kg
in vivo [13] = conditions: male, Wistar Hannover, rat, po, 100 mg/kg; remark: listed apart in the source
in vivo [14] = conditions: male, Wistar Hannover, rat, po, 100 mg/kg; remark: listed apart in the source
in vivo [15] = conditions: male, cynomolgus monkey, iv, 1 mg/kg
in vivo [16] = conditions: male, cynomolgus monkey, plasma, iv, 1 mg/kg
in vivo [17] = conditions: male, cynomolgus monkey, iv, 1 mg/kg; remark: listed apart in the source
in vivo [18] = conditions: male, cynomolgus monkey, iv, 1 mg/kg; remark: listed apart in the source
in vivo [19] = conditions: male, Wistar Hannover, rat, po, 10 mg/kg; remark: listed apart in the source
in vivo [20] = conditions: male, Wistar Hannover, rat, po, 10 mg/kg; remark: listed apart in the source
in vivo [21] = conditions: male, Wistar Hannover, rat, po, 10 mg/kg; remark: listed apart in the source
in vivo [22] = conditions: male, Wistar Hannover, rat, po, 100 mg/kg; remark: listed apart in the source
in vivo [23] = conditions: male, Wistar Hannover, rat, po, 100 mg/kg; remark: listed apart in the source
in vivo [24] = conditions: male, Wistar Hannover, rat, po, 100 mg/kg; remark: listed apart in the source
in vivo [25] = conditions: male, cynomolgus monkey, po, 10 mg/kg
in vivo [26] = conditions: male, cynomolgus monkey, po, 10 mg/kg; remark: listed apart in the source
in vivo [27] = conditions: male, cynomolgus monkey, po, 10 mg/kg; remark: listed apart in the source
in vivo [28] = conditions: male, cynomolgus monkey, po, 100 mg/kg
in vivo [29] = conditions: male, cynomolgus monkey, po, 100 mg/kg; remark: listed apart in the source
in vivo [30] = conditions: male, cynomolgus monkey, po, 100 mg/kg; remark: listed apart in the source
in vivo [31] = conditions: male, cynomolgus monkey, po, 100 mg/kg; remark: listed apart in the source
in vivo [32] = conditions: male, cynomolgus monkey, po, 100 mg/kg; remark: listed apart in the source
in vivo [33] = conditions: male, cynomolgus monkey, po, 100 mg/kg; remark: listed apart in the source

CC(=O)N[C@H](C(=O)N1C[C@H]2[C@@H]([C@H]1C(=O)N[C@@H](C[C@@H]1CCNC1=O)C(=O)c1nc3ccccc3s1)C2(C)C)C(C)(C)C
Papp A→B (in vitro [1]): 0.7 ×10⁻⁶ cm/s | microsomal CLint (in vitro [2]): 27 µL/min/mg | logD (physchem): 2.4 | EC50 (SARS-CoV-2): 0.702 µM

CC(C)(C)[C@H](NS(=O)(=O)C(F)(F)F)C(=O)N1C[C@H]2[C@@H]([C@H]1C(=O)N[C@H](C#N)C[C@@H]1CCNC1=O)C2(C)C
Papp A→B (in vitro [1]): 0.7 ×10⁻⁶ cm/s | microsomal CLint (in vitro [2]): < 7.47 µL/min/mg | EC50 (SARS-CoV-2): 0.179 µM

CN(C)C(=O)N[C@H](C(=O)N1C[C@H]2[C@@H]([C@H]1C(=O)N[C@H](C#N)C[C@@H]1CCNC1=O)C2(C)C)C(C)(C)C
Papp A→B (in vitro [1]): 0.383 ×10⁻⁶ cm/s | microsomal CLint (in vitro [2]): 22.2 µL/min/mg | EC50 (SARS-CoV-2): 1.78 µM

COc1cccc2[nH]c(C(=O)N[C@@H](CC(C)C)C(=O)N[C@H](C#N)C[C@@H]3CCNC3=O)cc12
bioavailability (in vivo [3]): 7% | Papp A→B (in vitro [1]): 0.945 ×10⁻⁶ cm/s

CC(C)[C@H](NC(=O)C(F)(F)F)C(=O)N1C[C@H]2[C@@H]([C@H]1C(=O)N[C@@H](C[C@@H]1CCNC1=O)C(=O)c1nc3ccccc3o1)C2(C)C
bioavailability (in vivo [3]): 18% | Papp A→B (in vitro [1]): 2.1 ×10⁻⁶ cm/s | microsomal CLint (in vitro [2]): 7.3 µL/min/mg | EC50 (SARS-CoV-2): 0.207 µM

CC(C)(C)[C@H](NC(=O)C(F)(F)F)C(=O)N1C[C@H]2[C@@H]([C@H]1C(=O)N[C@H](C#N)C[C@@H]1CCNC1=O)C2(C)C
AUC(0-inf) at 4 h (in vivo [4]): 3190 ng·h/mL | clearance at 4 h (in vivo [5]): 27.2 mL/min/kg | Vd at 4 h (in vivo [6]): 1.8 L/kg | half-life at 4 h (in vivo [7]): 5.1 h | Cmax at 4 h (in vivo [8]): 1290 ng/mL | Tmax at 4 h (in vivo [9]): 1.5 h | half-life at 4 h (in vivo [10]): 4 h | bioavailability at 4 h (in vivo [11]): 50% | Tmax at 4 h (in vivo [12]): 0.75 h | AUC(0-inf) at 4 h (in vivo [13]): 68300 ng·h/mL | bioavailability at 4 h (in vivo [14]): 108% | AUC(0-inf) (in vivo [15]): 977 ng·h/mL | clearance (in vivo [16]): 17.1 mL/min/kg | Vd (in vivo [17]): 0.33 L/kg | half-life (in vivo [18]): 0.79 h | Cmax at 4 h (in vivo [19]): 1450 ng/mL | AUC(0-inf) at 4 h (in vivo [20]): 2170 ng·h/mL | half-life at 4 h (in vivo [21]): 2.8 h | Tmax at 4 h (in vivo [22]): 1.4 h | AUC(0-inf) at 4 h (in vivo [23]): 18000 ng·h/mL | bioavailability at 4 h (in vivo [24]): 29% | Cmax (in vivo [25]): 1450 ng/mL | AUC(0-t) (in vivo [26]): 831 ng·h/mL | bioavailability (in vivo [27]): 8.5% | Cmax (in vivo [28]): 16300 ng/mL | Tmax (in vivo [29]): 1 h | AUC(0-inf) (in vivo [30]): 37200 ng·h/mL | Cmax (in vivo [31]): 1560 ng/mL | Tmax (in vivo [32]): 0.5 h | AUC(0-inf) (in vivo [33]): 4400 ng·h/mL | Papp A→B (in vitro [1]): 1.71 ×10⁻⁶ cm/s | microsomal CLint (in vitro [2]): 24.5 µL/min/mg

CC(C)[C@H](NC(=O)C(F)(F)F)C(=O)N1C[C@H]2[C@@H]([C@H]1C(=O)N[C@@H](C[C@@H]1CCNC1=O)C(=O)c1noc(-c3ccccc3)n1)C2(C)C
Papp A→B (in vitro [1]): 3.5 ×10⁻⁶ cm/s | microsomal CLint (in vitro [2]): 40.5 µL/min/mg | EC50 (SARS-CoV-2): 0.194 µM

COc1cccc2[nH]c(C(=O)N[C@@H](CC(C)(C)C)C(=O)N[C@@H](C[C@@H]3CCNC3=O)C(=O)c3nc4ccccc4s3)cc12
bioavailability (in vivo [3]): < 1% | Papp A→B (in vitro [1]): 4.3 ×10⁻⁶ cm/s | microsomal CLint (in vitro [2]): 350 µL/min/mg | logD (physchem): 4 | EC50 (SARS-CoV-2): 0.383 µM

COCC(=O)[C@H](C[C@@H]1CCNC1=O)NC(=O)[C@@H]1[C@@H]2[C@H](CN1C(=O)[C@@H](NC(=O)C(F)(F)F)C(C)(C)C)C2(C)C
Papp A→B (in vitro [1]): 0.499 ×10⁻⁶ cm/s | microsomal CLint (in vitro [2]): 11.8 µL/min/mg | EC50 (SARS-CoV-2): 0.134 µM

COc1cccc2[nH]c(C(=O)N[C@@H](CC(C)C)C(=O)N[C@@H](C[C@@H]3CCNC3=O)C(=O)CO)cc12 [PF-00835231]
bioavailability (in vivo [3]): < 0.5% | Papp A→B (in vitro [1]): < 0.207 ×10⁻⁶ cm/s | microsomal CLint (in vitro [2]): 7 µL/min/mg | logD (physchem): 1.7

CC(C)(C)[C@H](NC(=O)CC(F)(F)F)C(=O)N1C[C@H]2[C@@H]([C@H]1C(=O)N[C@H](C#N)C[C@@H]1CCNC1=O)C2(C)C
Papp A→B (in vitro [1]): 0.916 ×10⁻⁶ cm/s | microsomal CLint (in vitro [2]): 12.7 µL/min/mg | EC50 (SARS-CoV-2): 0.85 µM

COc1ccc2nc(C(=O)[C@H](C[C@@H]3CCNC3=O)NC(=O)[C@@H]3[C@@H]4[C@H](CN3C(=O)[C@@H](NC(=O)C(F)(F)F)C(C)C)C4(C)C)sc2c1
Papp A→B (in vitro [1]): 13.8 ×10⁻⁶ cm/s | microsomal CLint (in vitro [2]): 20.7 µL/min/mg | EC50 (SARS-CoV-2): 0.611 µM

CNC(=O)N[C@H](C(=O)N1C[C@H]2[C@@H]([C@H]1C(=O)N[C@H](C#N)C[C@@H]1CCNC1=O)C2(C)C)C(C)(C)C
Papp A→B (in vitro [1]): 0.62 ×10⁻⁶ cm/s | microsomal CLint (in vitro [2]): < 7.12 µL/min/mg

CC(C)(C)[C@H](NS(C)(=O)=O)C(=O)N1C[C@H]2[C@@H]([C@H]1C(=O)N[C@H](C#N)C[C@@H]1CCNC1=O)C2(C)C
bioavailability (in vivo [3]): < 1% | Papp A→B (in vitro [1]): < 0.193 ×10⁻⁶ cm/s | microsomal CLint (in vitro [2]): 11.4 µL/min/mg | EC50 (SARS-CoV-2): 0.54 µM

CC(C)[C@H](NC(=O)C(F)(F)F)C(=O)N1C[C@H]2[C@@H]([C@H]1C(=O)N[C@@H](C[C@@H]1CCNC1=O)C(=O)c1nc3cc(C(F)(F)F)ccc3s1)C2(C)C
Papp A→B (in vitro [1]): 8.8 ×10⁻⁶ cm/s | microsomal CLint (in vitro [2]): 45.3 µL/min/mg | EC50 (SARS-CoV-2): 0.0648 µM

CC(C)(C)[C@H](NC(=O)C(F)(F)F)C(=O)N1C[C@H]2[C@@H]([C@H]1C(=O)N[C@@H](C[C@@H]1CCNC1=O)C(=O)CO)C2(C)C
Papp A→B (in vitro [1]): < 0.481 ×10⁻⁶ cm/s | microsomal CLint (in vitro [2]): < 7 µL/min/mg | EC50 (SARS-CoV-2): < 0.331 µM

CC(C)[C@H](NC(=O)C(F)(F)F)C(=O)N1C[C@H]2[C@@H]([C@H]1C(=O)N[C@H](C#N)C[C@@H]1CCNC1=O)C2(C)C
bioavailability (in vivo [3]): 20% | Papp A→B (in vitro [1]): 0.721 ×10⁻⁶ cm/s | microsomal CLint (in vitro [2]): 7.9 µL/min/mg | EC50 (SARS-CoV-2): 0.229 µM

CC(=O)N[C@H](C(=O)N1C[C@H]2[C@@H]([C@H]1C(=O)N[C@H](C#N)C[C@@H]1CCNC1=O)C2(C)C)C(C)(C)C
bioavailability (in vivo [3]): 2.8% | Papp A→B (in vitro [1]): < 0.302 ×10⁻⁶ cm/s | microsomal CLint (in vitro [2]): < 7 µL/min/mg | EC50 (SARS-CoV-2): 5.31 µM

COC(=O)N[C@H](C(=O)N1C[C@H]2[C@@H]([C@H]1C(=O)N[C@H](C#N)C[C@@H]1CCNC1=O)C2(C)C)C(C)(C)C
bioavailability (in vivo [3]): 21% | Papp A→B (in vitro [1]): 0.61 ×10⁻⁶ cm/s | microsomal CLint (in vitro [2]): 8.1 µL/min/mg

CC(C)[C@H](NS(C)(=O)=O)C(=O)N1C[C@H]2[C@@H]([C@H]1C(=O)N[C@@H](C[C@@H]1CCNC1=O)C(=O)c1nc3ccccc3s1)C2(C)C
bioavailability (in vivo [3]): 7% | Papp A→B (in vitro [1]): 1.7 ×10⁻⁶ cm/s | microsomal CLint (in vitro [2]): 70 µL/min/mg | logD (physchem): 2.4 | EC50 (SARS-CoV-2): 0.909 µM

CC(C)[C@H](NC(=O)C(F)(F)F)C(=O)N1C[C@H]2[C@@H]([C@H]1C(=O)N[C@@H](C[C@@H]1CCNC1=O)C(=O)c1noc(C(C)(C)C)n1)C2(C)C
Papp A→B (in vitro [1]): 0.5 ×10⁻⁶ cm/s | microsomal CLint (in vitro [2]): < 7 µL/min/mg | EC50 (SARS-CoV-2): 0.625 µM

COc1cccc2[nH]c(C(=O)N3C[C@H]4[C@@H]([C@H]3C(=O)N[C@@H](C[C@@H]3CCNC3=O)C(=O)c3nc5ccccc5s3)C4(C)C)cc12
Papp A→B (in vitro [1]): 7.3 ×10⁻⁶ cm/s | microsomal CLint (in vitro [2]): 337 µL/min/mg | logD (physchem): 4.2 | EC50 (SARS-CoV-2): 5.59 µM
